Our source for the TGI values is PubChem BioAssay (NCI).

Common to all, as to experiment: NCI tumour cell line growth inhibition, 48 h
Experiment [1] has as its system A498 renal.
In experiment [2] the test system is ACHN renal.
The subject of experiment [3] is CAKI-1 renal.
Experiment [4] relates to COLO 205 colon.
Experiment [5] relates to EKVX NSCLC.
Experiment [6] relates to HCT-15 colon.
The subject of experiment [7] is IGROV1 ovarian.
The test system of experiment [8] is M14 melanoma.
The subject of experiment [9] is MDA-MB-435.
Experiment [10] deals with MOLT-4 leukemia.
In experiment [11] the test system is NCI-H23 lung.
The subject of experiment [12] is NCI-H522 lung.
Experiment [13] deals with SF-268 CNS.
Experiment [14] deals with SF-295 CNS.
Experiment [15] deals with SK-MEL-2 melanoma.
The subject of experiment [16] is SK-OV-3 ovarian.
The test system of experiment [17] is T-47D breast.
Experiment [18] concerns UACC-257 melanoma.
Experiment [19] concerns UACC-62 melanoma.
Experiment [20] deals with LXFL 529 NSCLC.

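In this assay, cells in 96-well plates receive the compound at five concentrations for 48 hours. Endpoints are linearly interpolated between the surrounding concentrations. TGI marks complete inhibition of growth.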

Consider `O=C1/C(=C/C=C/c2ccccc2)N=C(c2ccccc2)N1c1ccc(S(=O)(=O)Nc2nccs2)cc1`, for which the TGI was more than 100 µM in experiment [1]; 34.5 µM in experiment [2]; more than 100 µM in experiment [3]; 35.5 µM in [4]; 84.7 µM in [5]; more than 100 µM in experiment [6]. In addition, the TGI was 44.5 µM in [7]; more than 100 µM in experiment [8]; more than 100 µM in experiment [9]; more than 100 µM in [10]; 63.8 µM in experiment [11]; 36.6 µM in experiment [12]. Besides, the TGI is 39.8 µM in experiment [13]; more than 100 µM in experiment [14]; 86.6 µM in [15]; 85.2 µM in [16]; more than 100 µM in experiment [17]; more than 100 µM in experiment [18]. In experiment [19], this compound registered a TGI of 61.7 µM.

In the case of `CN(CCNC(=O)c1nn(-c2ccc(Cl)cc2Cl)c2c1Cc1ccccc1-2)CCNC(=O)c1nn(-c2ccc(Cl)cc2Cl)c2c1Cc1ccccc1-2`, the TGI in [1] is 12.9 µM; in experiment [2], 29.7 µM; in experiment [3], more than 47.4 µM; in [4] it was 3.43 µM; in experiment [5], more than 100 µM; in experiment [6], 5.97 µM. The TGI was more than 100 µM in experiment [7]; 3.46 µM in experiment [8]; 2.43 µM in [9]; 6.81 µM in experiment [10]; 30.2 µM in experiment [11]; 3.71 µM in experiment [12]. Besides, the TGI in experiment [13] is more than 100 µM; in experiment [14] it was 5.19 µM; in experiment [15], 4.32 µM; in experiment [16], 97.9 µM; in experiment [17] it was more than 30.2 µM; in [18], 4.72 µM. The compound further returned a TGI in experiment [19] of 3.48 µM.

As for `Cc1cn(C2CC(N=[N+]=[N-])C(CO)O2)c(=O)n(CCCCBr)c1=O` (stereo not drawn), the TGI in experiment [1], in experiment [2], in [3], in experiment [4], in [5] and in experiment [6] was more than 100 µM throughout. Moreover, the TGI in [7], in experiment [8], in experiment [9], in [10], in [11] and in [12] was more than 100 µM throughout. Further, the TGI in experiment [13], in experiment [14], in experiment [15], in experiment [16], in experiment [17] and in [18] was more than 100 µM in each case. The same compound gave a TGI in experiment [19] of more than 100 µM.

As for `O=C(O)/C=C/c1ccc(OS(=O)(=O)O)cc1`, the TGI in experiment [1], in [2], in experiment [3], in [4], in [5] and in experiment [6] was more than 100 µM throughout. Besides, the TGI in [7], in experiment [8], in experiment [9], in experiment [10], in [11] and in experiment [12] was more than 100 µM throughout. Also, the TGI in [13], in experiment [14], in [15], in experiment [16], in [17] and in [18] was more than 100 µM in each case. The same compound came in with a TGI in experiment [19] of more than 100 µM.

In the case of `CN(C)/C=C/c1c2c(nc3ccccc13)C(=O)c1cccnc1C2=O`, the TGI is 2.31 µM in experiment [1]; 2.28 µM in experiment [2]; more than 38.7 µM in experiment [3]; 5.55 µM in [4]; 22.9 µM in experiment [5]; 1.07 µM in [6]. Also, the TGI is 4.16 µM in [7]; 0.597 µM in experiment [8]; 1.56 µM in experiment [9]; 6.98 µM in experiment [10]; 0.42 µM in experiment [11]; 1.13 µM in [12]. The TGI in experiment [13] is 4.02 µM; in experiment [14], 1.62 µM; in experiment [15], 4.1 µM; in experiment [16], 1.16 µM; in experiment [17], 21.6 µM; in [18] it was 1.8 µM. This compound also returned a TGI in experiment [19] of 1.25 µM.

Take `CN1N=C2c3ccccc3OC(c3ccccc3)[C@H]2C1c1ccccc1` (stereo partly drawn): the TGI in experiment [1], in [2], in [4], in experiment [5], in experiment [6] and in experiment [7] was more than 100 µM each time. Further, the TGI in experiment [20], in experiment [8], in experiment [10], in experiment [11], in experiment [12] and in experiment [13] was more than 100 µM each time. For the same compound, the TGI in experiment [14], in experiment [15], in [16], in [18] and in [19] was more than 100 µM throughout.

For `CCCCCCCC(=O)OC[C@H](C[As](=O)(O)O)OC(=O)CCCCCCC`, the TGI in experiment [1] came out at 25.3 µM; in [2] it was 23.1 µM; in [4], 30 µM; in [5], 80.7 µM; in experiment [6], 23.5 µM; in experiment [7], 14.4 µM. For the same compound, the TGI in experiment [20] turned out to be 21.7 µM; in experiment [8], 25.6 µM; in experiment [10] it was 14.1 µM; in [11], 28.2 µM; in experiment [12] it was 4.07 µM; in [13], 15.6 µM. Further, the TGI in experiment [14] is 27.5 µM; in [16] it was 29 µM; in experiment [18], 27.2 µM; in experiment [19], 21.3 µM.
